Source: patent publication US20170087109A1, “COMPOSITIONS AND METHODS FOR TREATING BLACKHEADS” (Johnson & Johnson Consumer Inc., priority 2015, published 2017)

Assay: Blackhead dissolution test (extracted blackheads submerged in test material, graded by expert inspection)
Parameters: species or system human
Conditions: blackhead submerged in approximately 100 microliters test material for 24 hours at room temperature, no agitation; 1 = not dissolved, 7 = completely dissolved
Experimental: A series of compounds and compositions were tested for their ability to dissolve blackheads as follows.
The blackheads were extracted from human volunteers using a comedone extracator. They were placed in a 24 or 96 well plate and submerged into approximately 100 microliters of each test material listed in Table 1 for 24 hours at room temperature ([…]). Gray color cards (GretagMacbeth ColorChecker™ Color Rendition Chart-Neutral 8 (0.23) CC20) were used underneath and measurements were made using a WILD M10 microscope at 40x, no agitation. The plates were covered with parafilm to avoid evaporation, and each test solution was removed at 24 hours and allowed to dry overnight. The amount of blackhead dissolved was graded by expert inspection on a scale from 1-7, 1 being not dissolved, and 7 being completely dissolved as shown in Table 1.

Row | Compound | Outcome at 24 hours (amount of blackhead dissolved, grade on scale 1-7)
1 | [Na+].[OH-] [0.1M NaOH, NaOH, reference compound] | 4.33 ± 0.58
2 | CCCCCCCCCCCCCC(=O)O [10% Myristic acid in KOH, Myristic acid] | 6.00 ± 0.01
3 | CCCCCCCC/C=C\CCCCCCCC(=O)O [10% Oleic acid in KOH, Oleic acid] | 7.00 ± 0.01
